Assay results reported in DBAASP.
Converted amounts (≈) assume the structure as drawn. One block for each compound: values may come before it.

Columns and labels:
Test in all cases: ≥ marks a high value that may be exact or a test limit, other limits are often not marked, values filed in µg/mL are converted to µM
Acinetobacter baumannii = system: Acinetobacter baumannii
[1] = system: Acinetobacter baumannii KCTC 2508
[2] = system: Fusarium oxysporum DSM Z62306
[3] = system: Botrytis cinerea DSM Z877
Histophilus somni = system: Histophilus somni
Pasteurella multocida = system: Pasteurella multocida
Mannheimia haemolytica = system: Mannheimia haemolytica
Glaesserella parasuis = system: Glaesserella parasuis
[4] = system: Glaesserella parasuis ATCC 19417
[5] = system: Escherichia coli ATCC 25922
[6] = system: Staphylococcus aureus ATCC 29213
[7] = system: Candida albicans ATCC 37092
[8] = system: Escherichia coli IFO 3972
[9] = system: Staphylococcus aureus FDA 209P

MIC (Acinetobacter baumannii): 6.25 µM (≈ 14.4 µg/mL)
MIC [1]: 6.25 µM (≈ 14.4 µg/mL)
SMILES: CC[C@H](C)[C@H](NC(=O)CNC(=O)[C@H](CC(C)C)NC(=O)[C@H](CCCN=C(N)N)NC(=O)[C@H](CCCCN)NC(=O)[C@H](Cc1ccccc1)NC(=O)[C@@H](NC(=O)[C@H](CCCCN)NC(=O)[C@H](CCCCN)NC(=O)[C@H](C)N)C(C)C)C(=O)NCC(=O)N[C@@H](CCCCN)C(=O)N[C@@H](Cc1ccccc1)C(=O)N[C@@H](CC(C)C)C(=O)N[C@@H](Cc1cnc[nH]1)C(=O)N[C@@H](CO)C(=O)N[C@@H](C)C(=O)N[C@@H](CCCCN)C(=O)N[C@@H](CCCCN)C(=O)N[C@@H](Cc1ccccc1)C(N)=O [AKKVFKRLGIGKFLHSAKKF]

MIC (Histophilus somni): 1.14 µM (≈ 4.69 µg/mL)
MIC (Pasteurella multocida): 0.558 µM (≈ 2.3 µg/mL)
SMILES: CC[C@H](C)[C@@H]1NC(=O)CNC(=O)[C@H](CCCCN)NC(=O)[C@H](CC(N)=O)NC(=O)[C@H](CCCN=C(N)N)NC(=O)[C@H](C(C)C)NC(=O)[C@@H](NC(=O)[C@H](CO)NC(=O)[C@@H](NC(=O)[C@@H]2CCCN2C(=O)[C@@H](N)CC(N)=O)C(C)C)CSSC[C@@H]2NC(=O)[C@H](CCCCN)NC(=O)[C@H](C(C)C)NC(=O)[C@H](C)NC(=O)[C@H](CCCN=C(N)N)NC(=O)CNC(=O)[C@H](C(C)C)NC(=O)[C@@H]3CSSC[C@H](NC1=O)C(=O)N[C@@H](C(C)C)C(=O)N1CCC[C@H]1C(=O)N[C@@H]([C@@H](C)CC)C(=O)N[C@@H](CCCN=C(N)N)C(=O)N[C@@H](CSSC[C@@H](C(=O)N[C@@H](CCCN=C(N)N)C(=O)N[C@@H](CCCCN)C(=O)N[C@@H](CCCCN)C(=O)O)NC2=O)C(=O)N1CCC[C@H]1C(=O)NCC(=O)N[C@@H](CC(N)=O)C(=O)N[C@@H](CCSC)C(=O)N[C@@H](CCCCN)C(=O)N[C@@H](CCC(N)=O)C(=O)N[C@@H]([C@@H](C)CC)C(=O)NCC(=O)N[C@@H]([C@@H](C)O)C(=O)N3 [NPVSCVRNKGICVPIRCPGNMKQIGTCVGRAVKCCRKK]
MIC (Mannheimia haemolytica): 0.753 µM (≈ 3.1 µg/mL)

MIC [5]: > 500 µM
MIC [6]: > 500 µM
MIC [7]: ≥ 500 µM
SMILES: CC(C)C[C@H](NC(=O)[C@@H]1CCCN1C(=O)[C@H](CCCN=C(N)N)NC(=O)[C@@H]1CCCN1)C(=O)N1CCC[C@H]1C(=O)N[C@@H](Cc1ccccc1)C(=O)N1CCC[C@H]1C(=O)N[C@@H](CCCN=C(N)N)C(=O)N1CCC[C@H]1C(=O)NCC(=O)O [PRPLPFPRPG]

MIC [8]: ≥ 500 µM
MIC [9]: ≥ 500 µM
SMILES: CC(C)C[C@H](NC(=O)[C@H](Cc1c[nH]c2ccccc12)NC(=O)[C@@H](NC(=O)[C@H](Cc1c[nH]c2ccccc12)NC(=O)[C@H](Cc1cnc[nH]1)NC(=O)[C@@H](N)Cc1c[nH]c2ccccc12)[C@@H](C)O)C(=O)O [WHWTWL]

Second part, the compound before the results:

SMILES: CSCC[C@H](NC(=O)[C@@H](NC(=O)[C@@H](NC(=O)[C@H](CCCCN)NC(=O)[C@H](C)N)C(C)C)[C@@H](C)O)C(=O)N[C@H](C(=O)N[C@@H](CS)C(=O)N[C@@H](CO)C(=O)N[C@@H](C)C(=O)N[C@@H](CO)C(=O)O)[C@@H](C)O [AKVTMTCSAS]
MIC [2]: ≥ 100 µM
MIC [3]: ≥ 120 µM

SMILES: C[C@H](NC(=O)[C@H](Cc1ccccc1)NC(=O)[C@H](CS)NC(=O)[C@H](Cc1c[nH]c2ccccc12)NC(=O)[C@H](CCCN=C(N)N)NC(=O)[C@@H](N)CC(N)=O)C(=O)NCC(=O)N[C@@H](CC(=O)O)C(=O)N[C@@H](CC(=O)O)C(=O)O [NRWCFAGDD]
MIC (Glaesserella parasuis): 13.1 µM (≈ 14.1 µg/mL)
MIC [4]: 18.5 µM (≈ 20 µg/mL)
